From US20260014147A1, “STAT6 DEGRADERS” (Gilead Sciences, Inc., priority 2024, published 2026) come the findings set out here.

The target in assay [1] is T1, STAT6 (endogenous, HiBiT-tagged) in HeLa LgBiT clone 4.14 cells (Homo sapiens, UniProt P42226).
T1 construct: These cells express endogenous STAT6; host or cells: HeLa LgBiT clone 4.14
T1 sequence (P42226 1-847): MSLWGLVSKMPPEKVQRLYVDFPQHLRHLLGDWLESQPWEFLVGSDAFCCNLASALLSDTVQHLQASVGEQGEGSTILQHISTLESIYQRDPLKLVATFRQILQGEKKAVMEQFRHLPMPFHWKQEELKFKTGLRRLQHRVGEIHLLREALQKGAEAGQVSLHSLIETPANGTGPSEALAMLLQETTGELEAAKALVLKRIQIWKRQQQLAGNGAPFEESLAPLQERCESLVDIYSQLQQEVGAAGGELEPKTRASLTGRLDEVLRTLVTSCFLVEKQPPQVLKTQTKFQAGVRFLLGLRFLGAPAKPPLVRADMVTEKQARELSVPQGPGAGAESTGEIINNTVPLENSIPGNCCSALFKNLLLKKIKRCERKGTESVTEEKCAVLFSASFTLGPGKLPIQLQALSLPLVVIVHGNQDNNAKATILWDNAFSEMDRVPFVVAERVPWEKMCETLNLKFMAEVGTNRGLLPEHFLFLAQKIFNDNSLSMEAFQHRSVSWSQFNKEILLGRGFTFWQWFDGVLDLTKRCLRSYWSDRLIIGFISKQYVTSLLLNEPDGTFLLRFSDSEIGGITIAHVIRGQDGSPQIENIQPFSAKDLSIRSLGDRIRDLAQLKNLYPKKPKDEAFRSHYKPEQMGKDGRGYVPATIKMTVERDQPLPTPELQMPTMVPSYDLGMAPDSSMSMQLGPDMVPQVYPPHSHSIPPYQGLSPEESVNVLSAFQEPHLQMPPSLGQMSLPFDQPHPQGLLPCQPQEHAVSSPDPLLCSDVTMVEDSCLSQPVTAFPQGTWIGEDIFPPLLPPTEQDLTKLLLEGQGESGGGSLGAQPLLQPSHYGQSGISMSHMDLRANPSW
The assay is described as follows: STAT6 Degrader Assay (HiBiT based, HeLa LgBiT clone 4.14 cells, luminescence, DC50). The assay is classed as cell-based. The following applies: geometric mean; for Emax: Emax provided for test compounds with <80% Emax (and 2c15), read-out: STAT6 degradation Emax; for DC50: DC50 provided for test compounds with >80% Emax, read-out: STAT6 degradation DC50. The gist of the method: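 Remaining STAT6 is read as NanoBiT luminescence after 0.5 h with Nano-Glo, in HeLa LgBiT clone 4.14 cells expressing endogenous HiBiT-tagged STAT6, following 4-24 h compound incubation at 37 °C. Full degradation is set by 50 µM terfenadine, which kills the cells; degradation plotted against log compound concentration.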
Background: HiBiT is a short tag that completes a luciferase, so light tracks the accessible tagged protein.

The test system of assay [2] is Eotaxin-3 (CCL26) release in human whole blood stimulated with IL-4. The assay is described as follows: Human Whole Blood Eotaxin-3 Assay (IL-4 stimulated, inhibition of eotaxin-3 release). It is filed as cell-based. Particulars: Homo sapiens, EC50 provided for test compounds with >80% Emax, geometric mean across assay runs and batches. The gist of the method:
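Lithium-heparin human whole blood preincubated 2 h at 37 °C with compounds (4-fold serial dilution, triplicate, 0.5% DMSO final), then stimulated with 400 pM IL-4 for 48 h. Eotaxin-3 (CCL26) in supernatant quantified by MSD immunoassay.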

What is called Emax is the greatest response seen or fitted, relative to the assay's reference. As usually defined, the EC50 is the concentration giving half of the maximal effect. The low end stands for an effect from little substance, the high end for a need for much substance. By DC50 is commonly meant the concentration giving 50% degradation.

In the case of `C[C@@H](c1cc2c(-c3ccc(N)nn3)ccnc2n1C)N1CCC(c2ccc(C(=O)N3CCC(CN4CCN(c5ccc(NC6CCC(=O)NC6=O)cc5F)CC4)CC3)cc2)CC1` (stereo partly drawn) [Example 2c27, 3-((4-(4-((1-(4-(1-((S)-1-(4-(6-aminopyridazin-3-yl)-1-methyl-1H-pyrrolo[2,3-b]pyridin-2-yl)ethyl)piperidin-4-yl)benzoyl)piperidin-4-yl)methyl)piperazin-1-yl)-3-fluorophenyl)amino)piperidine-2,6-dione], the Emax in assay [1] was in the range of 70 to 80%. The molecule also showed an EC50 in assay [2] of 169 nM.

For the molecule `C[C@@H](c1cc2c(-c3ccc4[nH]c(=O)n(C)c4c3)ccnc2n1C)N1CCC(c2ccc(C(=O)N3CCC(CN4CCN(c5ccc(NC6CCC(=O)NC6=O)cc5F)CC4)CC3)cc2)CC1` (stereo partly drawn) [Example 2c28, 3-((3-fluoro-4-(4-((1-(4-(1-((S)-1-(1-methyl-4-(3-methyl-2-oxo-2,3-dihydro-1H-benzo[d]imidazol-5-yl)-1H-pyrrolo[2,3-b]pyridin-2-yl)ethyl)piperidin-4-yl)benzoyl)piperidin-4-yl)methyl)piperazin-1-yl)phenyl)amino)piperidine-2,6-dione], the Emax in assay [1] was 70 to 80%. Besides, in assay [2], the EC50 is 95.3 nM.

`C[C@@H](c1cc2c(-c3ncc(N)cc3F)ccnc2n1C)N1CCC(c2ccc(C(=O)N3CCC(CN4CCN(c5ccc(NC6CCC(=O)NC6=O)cc5F)CC4)CC3)cc2)CC1` (stereo partly drawn) [Example 2c30, 3-((4-(4-((1-(4-(1-((S)-1-(4-(5-amino-3-fluoropyridin-2-yl)-1-methyl-1H-pyrrolo[2,3-b]pyridin-2-yl)ethyl)piperidin-4-yl)benzoyl)piperidin-4-yl)methyl)piperazin-1-yl)-3-fluorophenyl)-amino)piperidine-2,6-dione]: in assay [1], the maximal response (Emax) lay in the range of 30 to 40%. This molecule gave an EC50 in assay [2] of 507 nM.

As to `COc1nc(N)ccc1-c1ccnc2c1cc([C@H](C)N1CCC(c3ccc(C(=O)N4CCC(CN5CCN(c6ccc(NC7CCC(=O)NC7=O)cc6F)CC5)CC4)cc3)CC1)n2C` (stereo partly drawn) [Example 2c32, 3-((4-(4-((1-(4-(1-((S)-1-(4-(6-amino-2-methoxypyridin-3-yl)-1-methyl-1H-pyrrolo[2,3-b]pyridin-2-yl)ethyl)piperidin-4-yl)benzoyl)piperidin-4-yl)methyl)piperazin-1-yl)-3-fluorophenyl)amino)-piperidine-2,6-dione], in assay [1], the DC50 is 16.5 nM. The same molecule came in with an EC50 in assay [2] of 67.9 nM.

`C[C@@H](c1cc2c(-c3ccc(N)cn3)ccnc2n1C)N1CCC(c2ccc(C(=O)N3CCC(CN4CCN(c5ccc(NC6CCC(=O)NC6=O)cc5F)CC4)CC3)cc2)CC1` (stereo partly drawn) [Example 2c33, 3-((4-(4-((1-(4-(1-((S)-1-(4-(5-aminopyridin-2-yl)-1-methyl-1H-pyrrolo[2,3-b]pyridin-2-yl)ethyl)-piperidin-4-yl)benzoyl)piperidin-4-yl)methyl)piperazin-1-yl)-3-fluorophenyl)amino)piperidine-2,6-dione]: the DC50 in assay [1] turned out to be 22.5 nM. The same molecule returned an EC50 in assay [2] of 136 nM.

As to `CNc1ccc(-c2ccnc3c2cc([C@H](C)N2CC=C(c4c(C)cc(C(=O)N5CCC(CN6CCN(c7ncc(NC8CCC(=O)NC8=O)cc7F)C[C@@H]6C)CC5)cc4F)CC2)n3C)cn1` (stereo partly drawn) [Example 2c45, 3-((5-fluoro-6-((S)-4-((1-(3-fluoro-5-methyl-4-(1-((S)-1-(1-methyl-4-(6-(methyl-amino)pyridin-3-yl)-1H-pyrrolo[2,3-b]pyridin-2-yl)ethyl)-1,2,3,6-tetrahydropyridin-4-yl)benzoyl)-piperidin-4-yl)methyl)-3-methylpiperazin-1-yl)pyridin-3-yl)amino)piperidine-2,6-dione], the DC50 in assay [1] is 21.3 nM. The molecule further came in with a 50% effective concentration (EC50) in assay [2] of 104 nM.

For `CNc1ccc(-c2ccnc3c2cc([C@H](C)N2CC=C(c4c(C)cc(C(=O)N5CCC(CN6CCN(c7ccc(NC8CCC(=O)NC8=O)c(OC)c7)CC6)CC5)cc4F)CC2)n3C)cn1` (stereo partly drawn) [Example 2c46, 3-((4-(4-((1-(3-fluoro-5-methyl-4-(1-((S)-1-(1-methyl-4-(6-(methylamino)pyridin-3-yl)-1H-pyrrolo[2,3-b]pyridin-2-yl)ethyl)-1,2,3,6-tetrahydropyridin-4-yl)benzoyl)piperidin-4-yl)methyl)piperazin-1-yl)-2-methoxyphenyl)amino)piperidine-2,6-dione], the 50% degradation concentration (DC50) in assay [1] worked out at 21.4 nM. This molecule also yielded a concentration giving a half-maximal response (EC50) in assay [2] of 58.4 nM.

As for `COCc1nc2cc(-c3ccnc4c3cc([C@H](C)N3CCC(c5ccc(C(=O)N6CCC(CN7CCN(c8ccc(NC9CCC(=O)NC9=O)cc8F)C[C@H]7C)CC6)cc5)CC3)n4C)ccc2[nH]1` (stereo partly drawn) [Example 2f1, 3-((3-fluoro-4-((R)-4-((1-(4-(1-((S)-1-(4-(2-(methoxymethyl)-1H-benzo[d]imidazol-5-yl)-1-methyl-1H-pyrrolo[2,3-b]pyridin-2-yl)ethyl)piperidin-4-yl)benzoyl)piperidin-4-yl)methyl)-3-methylpiperazin-1-yl)phenyl)amino)piperidine-2,6-dione], in assay [1], the DC50 was found to be 3.4 nM. In addition, the EC50 in assay [2] was 25 nM.

With `C[C@@H]1CN(c2ccc(NC3CCC(=O)NC3=O)cc2F)CCN1CC1CCN(C(=O)c2ccc(C3CCN([C@@H](C)c4cc5c(-c6ccc(N)nc6)ccnc5n4C)CC3)cc2)CC1` (stereo partly drawn) [Example 2f2, 3-((4-((R)-4-((1-(4-(1-((S)-1-(4-(6-aminopyridin-3-yl)-1-methyl-1H-pyrrolo[2,3-b]pyridin-2-yl)ethyl)piperidin-4-yl)benzoyl)piperidin-4-yl)methyl)-3-methylpiperazin-1-yl)-3-fluorophenyl)amino)-piperidine-2,6-dione], in assay [1], the DC50 turned out to be 6.8 nM. The half-maximal effective concentration (EC50) in assay [2] is 37 nM.

Take `C[C@@H](c1cc2c(-c3ccc(N)nc3)ccnc2n1C)N1CCC(c2ccc(C(=O)N3CCC(CN4CCC(c5ccc(NC6CCC(=O)NC6=O)cc5F)C(F)(F)C4)CC3)cc2)CC1` (stereo partly drawn) [Example 2m2, 3-((4-(1-((1-(4-(1-((S)-1-(4-(6-aminopyridin-3-yl)-1-methyl-1H-pyrrolo[2,3-b]pyridin-2-yl)-ethyl)piperidin-4-yl)benzoyl)piperidin-4-yl)methyl)-3,3-difluoropiperidin-4-yl)-3-fluorophenyl)amino)-piperidine-2,6-dione]: the Emax in assay [1] is 60 to 70%. The molecule also returned a half-maximal effective concentration (EC50) in assay [2] of 118 nM.

As to `C[C@@H](c1cc2c(-c3ccc(N)nc3)ccnc2n1C)N1CCC(c2ccc(C(=O)N3CCC(CN4CCN(c5ccc(NC6CCC(=O)NC6=O)c(F)n5)CC4)CC3)cc2)CC1` (stereo partly drawn) [Example 2n9, 3-((6-(4-((1-(4-(1-((S)-1-(4-(6-aminopyridin-3-yl)-1-methyl-1H-pyrrolo[2,3-b]pyridin-2-yl)-ethyl)-piperidin-4-yl)benzoyl)piperidin-4-yl)methyl)piperazin-1-yl)-2-fluoropyridin-3-yl)amino)piperidine-2,6-dione], the maximum response (Emax) in assay [1] is 70 to 80%. The same molecule displayed a 50% effective concentration (EC50) in assay [2] of 141 nM.

Regarding `C[C@@H](c1cc2c(-c3ccc(N)nc3)ccnc2n1C)N1CCC(c2ccc(C(=O)N3CCC(CN4CCN(c5ncc(NC6CCC(=O)NC6=O)cc5F)CC4)CC3)cc2)CC1` (stereo partly drawn) [Example 2n10, 3-((6-(4-((1-(4-(1-((S)-1-(4-(6-aminopyridin-3-yl)-1-methyl-1H-pyrrolo[2,3-b]pyridin-2-yl)ethyl)-piperidin-4-yl)benzoyl)piperidin-4-yl)methyl)piperazin-1-yl)-5-fluoropyridin-3-yl)amino)-piperidine-2,6-dione], in assay [1], the Emax fell in the range of 70 to 80%. Further, the EC50 in assay [2] amounted to 131 nM.

As to `COCc1nc2cc(-c3ccnc4c3cc([C@H](C)N3CCC(c5ccc(C(=O)N6CCC(CN7CCN(c8ncc(NC9CCC(=O)NC9=O)cc8F)CC7)CC6)cc5)CC3)n4C)ccc2[nH]1` (stereo partly drawn) [Example 2n12, 3-((5-fluoro-6-(4-((1-(4-(1-((S)-1-(4-(2-(methoxymethyl)-1H-benzo[d]imidazol-5-yl)-1-methyl-1H-pyrrolo[2,3-b]pyridin-2-yl)ethyl)piperidin-4-yl)benzoyl)piperidin-4-yl)methyl)piperazin-1-yl)pyridin-3-yl)amino)piperidine-2,6-dione], the Emax in assay [1] was 70 to 80%. Further, the EC50 in assay [2] came to 40.9 nM.
